# Structures can show the parent of a compound that is named as a salt. Where two headings read alike, the source gives them in different places.
# Columns and labels:
# [1] = target: T1, soluble guanylate cyclase (sGC) (Homo sapiens, UniProt Q02108+Q02153); test: In vitro detection experiment for soluble guanylate cyclase (sGC) activity (TR-FRET cGMP); assay type: biochemical; conditions: enzymatic agonism and/or activation of sGC; 1.5 nM sGC, 5 µM GTP, 100 µM DETA NONOate
# T1 construct: purchased ICE S2304F-H07SH2
# T1 sequence (Q02153 1-619): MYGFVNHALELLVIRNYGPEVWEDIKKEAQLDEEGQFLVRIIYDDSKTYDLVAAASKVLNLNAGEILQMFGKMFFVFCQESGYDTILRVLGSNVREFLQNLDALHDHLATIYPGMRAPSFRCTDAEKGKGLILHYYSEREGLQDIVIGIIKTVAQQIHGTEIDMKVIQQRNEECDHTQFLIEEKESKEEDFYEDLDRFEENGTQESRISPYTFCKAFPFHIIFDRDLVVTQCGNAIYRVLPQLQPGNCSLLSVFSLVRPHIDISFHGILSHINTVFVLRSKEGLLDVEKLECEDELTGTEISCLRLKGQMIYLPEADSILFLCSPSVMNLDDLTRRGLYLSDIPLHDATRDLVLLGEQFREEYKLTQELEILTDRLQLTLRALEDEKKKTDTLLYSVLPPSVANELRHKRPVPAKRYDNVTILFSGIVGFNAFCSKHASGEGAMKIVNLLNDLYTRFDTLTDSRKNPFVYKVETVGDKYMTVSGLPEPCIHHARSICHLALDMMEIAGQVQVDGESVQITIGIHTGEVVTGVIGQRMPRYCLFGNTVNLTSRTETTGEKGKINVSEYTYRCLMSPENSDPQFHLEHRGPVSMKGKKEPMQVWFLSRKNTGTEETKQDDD
# T1 sequence (Q02108 1-690): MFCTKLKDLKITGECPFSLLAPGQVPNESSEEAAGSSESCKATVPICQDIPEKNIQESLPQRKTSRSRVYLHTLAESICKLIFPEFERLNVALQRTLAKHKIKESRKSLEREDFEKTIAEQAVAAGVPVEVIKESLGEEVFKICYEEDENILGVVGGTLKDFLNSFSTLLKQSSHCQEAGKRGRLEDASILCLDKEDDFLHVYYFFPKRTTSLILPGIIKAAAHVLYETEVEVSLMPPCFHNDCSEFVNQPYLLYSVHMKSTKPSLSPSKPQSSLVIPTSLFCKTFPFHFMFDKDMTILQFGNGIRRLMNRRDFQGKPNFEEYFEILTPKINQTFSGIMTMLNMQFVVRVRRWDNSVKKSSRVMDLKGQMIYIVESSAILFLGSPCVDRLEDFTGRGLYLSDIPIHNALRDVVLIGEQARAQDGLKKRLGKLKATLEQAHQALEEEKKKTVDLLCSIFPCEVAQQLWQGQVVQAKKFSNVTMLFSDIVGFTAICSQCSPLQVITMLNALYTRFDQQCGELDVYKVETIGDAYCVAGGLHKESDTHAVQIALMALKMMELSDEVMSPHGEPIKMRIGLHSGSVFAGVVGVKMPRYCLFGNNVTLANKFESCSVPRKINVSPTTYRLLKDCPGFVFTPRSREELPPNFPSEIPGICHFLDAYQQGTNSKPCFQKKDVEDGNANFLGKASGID
# Procedure: First, 100 nL of the compounds at different concentrations were transferred to a 384-well reaction plate (Greiner, Cat. No. 784075) using Echo 655 (LABCYTE, Cat # 655), with the final DMSO concentration of 1% in the reaction mixture; 2 µL of sGC (ICE, Cat. No. S2304F-H07SH2) was added to the 384-well reaction plate, and the mixture was centrifuged at 1000 rpm for 1 min; and then 1 µL of DETA NONOate was added, and the mixture was incubated at 37°C for 10 min. After the incubation was completed, 2 µL of GTP was added, and the mixture was centrifuged at 1000 rpm for 1 min and reacted at 37°C for 60 min. In the reaction system, the final concentrations of sGC, GTP, and DETA NONOate were 1.5 nM, 5 µM, and 100 µM, respectively. After the reaction was completed, 5 µL of the test mixture (PerkinElmer, Cat. No. 62GM2PEG) was added, and the mixture was incubated at room temperature for 60 min. The TR-FRET signal (Ratio: 665/620 nm) was read using a microplate reader (BMG, Cat. No. PHERAstar FSX). A nonlinear regression curve was fitted using GraphPad Prism software, and EC50 values were calculated. Compound A (Example 1 in WO 2010065275) was used as a positive reference compound. The activation rate was calculated according to Equation 2-1, where Low control represents the TR-FRET signal value of 1 µM compound A, and High control represents the TR-FRET signal value in the DMSO well. Stimulation% = (aveHighcontrol−cpdwell)/(ave High control−ave Low; control)*100% [formula] Table 2-1 Results of enzymatic agonism and/or activation of test compounds on soluble guanylate cyclase (sGC).
# [2] = Mouse pharmacokinetic assay; assay type: in vivo, ICR mice; conditions: mice, i.g., 10 mg/kg, plasma
# Procedure: Experimental objective: In this experiment, a single dose of test compounds was administered to ICR mice intravenously and intragastrically, the concentrations of the test compounds in the plasma of mice were measured, and the pharmacokinetic characteristics and bioavailability of the test compounds in mice were evaluated.
# Experimental animals: male ICR mice, 20-35 g, purchased from Chengdu Dossy Experimental Animals Co., Ltd.
# Experimental method: On the day of the experiment, the ICR mice were randomly grouped according to their body weight. The animals were fasted but with water available overnight before the administration, and fed 4 h after the administration.
# Sampling: Blood was taken from the orbits at specified time points, and placed in an EDTAK2 centrifuge tube. The tube was centrifuged at 5000 rpm for 10 min, and the plasma was collected.
# Time points for plasma collection in G1 group: 0, 5 min, 15 min, 30 min, 1 h, 2 h, 4 h, 7 h, and 24 h.
# Time points for plasma collection in G2 group: 0, 5 min, 15 min, 30 min, 1 h, 2 h, 4 h, 7 h, and 24 h.
# Before analysis and detection, all the samples were stored at -60°C or lower. The samples were analyzed quantitatively by LC-MS/MS. Table 3-1 PK data of test compound (i.e., drug) in mice
# [3] = Rat pharmacokinetic assay; assay type: in vivo, SD rats; conditions: rats, i.g., 10 mg/kg, plasma
# Procedure: Experimental animals: male SD rats, 180-200 g, purchased from Chengdu Dossy Experimental Animals Co., Ltd.
# Experimental design: On the day of the experiment, the SD rats were randomly grouped according to their body weight. The animals were fasted but with water available overnight before the administration, and fed 4 h after the administration.
# Blood was taken from the orbits at specified time points, and placed in an EDTAK2 centrifuge tube. The tube was centrifuged at 5000 rpm for 10 min, and the plasma was collected.
# Blood sampling time points for the intravenous administration group: 0, 5 min, 15 min, 30 min, 1 h, 2 h, 4 h, 7 h and 24 h; blood sampling time points for the intragastric administration group: 0, 5 min, 15 min, 30 min, 1 h, 2 h, 4 h, 7 h and 24 h. Before analysis and detection, all the samples were stored at -60°C or lower. The samples were analyzed quantitatively by LC-MS/MS. Table 4-1 PK data of test compound (i.e., drug) in rats
# [4] = Stability test in rat liver microsomes; assay type: in vitro ADME
# Procedure: At 37°C, 1 µM of the test compound was incubated with rat liver microsomes (0.5 mg/mL) supplemented with an NADPH regeneration system for 5, 10, 20, 30 and 60 minutes, and then the LC-MS/MS method was used to detect the concentration of the test compound in the resulting sample. The half-life (T1/2) and intrinsic clearance (CLint(mic)) of the compound in rat liver microsome solution were obtained by calculating the remaining percentage of the compound at the corresponding time points.
# [5] = rat, microsomes, rat liver microsomes 0.5 mg/mL, 1 µM compound, NADPH regeneration system, 37°C
# [6] = rat, microsomes, rat liver microsomes 0.5 mg/mL, 1 µM compound, NADPH regeneration system, 37°C, read-out: CLint(mic)
# [7] = rat liver microsomes 0.5 mg/mL, 1 µM compound, NADPH regeneration system, 37°C
# [8] = rat liver microsomes 0.5 mg/mL, 1 µM compound, NADPH regeneration system, 37°C, 1 µM
SMILES,EC50 [1],"AUC ([2]; mouse, po, read-out: AUC)","AUC ([3]; rat, po, read-out: AUC)",also measured
CC(C)CN1CCN(c2ccc(-c3ccc(C(F)F)cc3N3CCC[C@@H](n4ncc(C(=O)O)c4C(F)F)C3)cc2)CC1 [Compound 3-1],< 20 nM,> 10000 ng·h/mL,> 10000 ng·h/mL,–
CC(C)CN1CCN(c2ccc(-c3c(F)cc(Cl)cc3N3CCCC(n4ncc(C(=O)O)c4C(F)F)C3)cc2)CC1 (racemic) [Compound 1],< 20 nM,–,–,–
CC(C)CN1CCN2c3cc(F)c(-c4ccc(Cl)cc4N4CCCC(n5ncc(C(=O)O)c5C(F)F)C4)cc3CC[C@H]2C1 (stereo partly drawn) [Trifluoroacetate salt of Compound 5],< 20 nM,–,–,–
CC(C)CN1CCN2c3cc(F)c(-c4ccc(Cl)cc4N4CCC[C@H](n5ncc(C(=O)O)c5C(F)F)C4)cc3CC[C@@H]2C1 [Compound 6-2],< 20 nM,> 10000 ng·h/mL,> 10000 ng·h/mL,"half-life at 1 µM [4, 5]: 1.95 h; microsomal CLint at 1 µM [4, 6]: 11.8 µL/min/mg"
CC(C)CN1CCN2c3cc(F)c(-c4ccc(Cl)cc4N4CCC[C@H](n5ncc(C(=O)O)c5C(F)F)C4)cc3CC[C@H]2C1 [Compound 5-2],< 20 nM,> 10000 ng·h/mL,–,–
"CC(C)CN1CCN(c2ccc(-c3ccc(Cl)cc3N3CCC[C@@H](n4ncc(C(=O)O)c4C(F)F)C3)cc2)CC1 [Control compound 1, reference compound]",–,–,–,"half-life at 1 µM [4, 7]: 0.183 h; microsomal CLint at 1 µM ([4]; rat liver microsomes 0.5 mg/mL, 1 µM compound, NADPH regeneration system, 37°C, read-out: CLint(mic)): 126 µL/min/mg"
CC(C)CN1CCN2c3ccc(-c4ccc(Cl)cc4N4CCCC(n5ncc(C(=O)O)c5C(F)F)C4)cc3CCC2C1 (stereo not drawn) [Compound 8],< 20 nM,–,–,–
CC(C)CN1CC=C(c2ccc(-c3ccc(Cl)cc3N3CCCC(n4ncc(C(=O)O)c4C(F)F)C3)cc2)CC1 (stereo not drawn) [Trifluoroacetate salt of Compound 11],< 20 nM,–,–,–
"CC(C)CN1CCN2c3ccc(-c4ccc(Cl)cc4N4CCC[C@@H](n5ncc(C(=O)O)c5C(F)F)C4)cc3CCC2C1 (single isomer, unassigned) [Compound 9-1]",< 20 nM,> 10000 ng·h/mL,–,"AUC [3]: > 10000 ng·h/mL; CLint(mic) [4, 8]: 11.0 µL/min/mg; T1/2 [4, 8]: 2.1 h"
"CC(C)CN1CCN(c2ccc(-c3c(F)cc(Cl)cc3N3CCCC(n4ncc(C(=O)O)c4C(F)F)C3)cc2)CC1 (single isomer, unassigned) [Compound 1-1]",–,–,–,"AUC ([2]; mouse, in vivo, po, read-out: AUC): > 10000 ng·h/mL; AUC ([3]; rat, in vivo, po, read-out: AUC): > 10000 ng·h/mL; half-life at 1 µM [4, 7]: 0.727 h; microsomal CLint at 1 µM ([4]; rat, microsomes): 31.8 µL/min/mg"
CC(C)CN1CCN2c3cc(F)c(-c4ccc(Cl)cc4N4CCC[C@@H](n5ncc(C(=O)O)c5C(F)F)C4)cc3CC[C@@H]2C1 [Compound 6-1],< 20 nM,> 10000 ng·h/mL,> 10000 ng·h/mL,"half-life at 1 µM [4, 5]: 1.87 h; microsomal CLint at 1 µM [4, 6]: 12.4 µL/min/mg"
CC(C)CN1CCN2c3cc(F)c(-c4ccc(Cl)cc4N4CCC[C@@H](n5ncc(C(=O)O)c5C(F)F)C4)cc3CC[C@H]2C1 [Compound 5-1],< 20 nM,> 10000 ng·h/mL,> 10000 ng·h/mL,"half-life at 1 µM [4, 5]: 2.33 h; microsomal CLint at 1 µM [4, 6]: 9.87 µL/min/mg"
"CC(C)CN1CCN2c3ccc(-c4ccc(Cl)cc4N4CCC[C@H](n5ncc(C(=O)O)c5C(F)F)C4)cc3CCC2C1 (single isomer, unassigned) [Compound 8-2]",< 20 nM,> 10000 ng·h/mL,> 10000 ng·h/mL,"half-life at 1 µM [4, 5]: 1.63 h; microsomal CLint at 1 µM [4, 6]: 14.1 µL/min/mg"
CC(C)CN1CCN(c2ccc(-c3ccc(C(F)F)cc3N3CCC[C@H](n4ncc(C(=O)O)c4C(F)F)C3)cc2)CC1 [Compound 3-2],< 20 nM,–,–,–
"CC(C)CN1CCN2c3ccc(-c4ccc(Cl)cc4N4CCC[C@@H](n5ncc(C(=O)O)c5C(F)F)C4)cc3CCC2C1 (single isomer, unassigned) [Compound 8-1]",< 20 nM,–,> 10000 ng·h/mL,"AUC [2]: > 10000 ng·h/mL; half-life at 1 µM [4, 5]: 2.53 h; microsomal CLint at 1 µM [4, 6]: 9.13 µL/min/mg"
CC(C)CN1CCC(c2ccc(-c3ccc(Cl)cc3N3CCCC(n4ncc(C(=O)O)c4C(F)F)C3)cc2)CC1 (stereo not drawn) [Trifluoroacetate salt of Compound 12],< 20 nM,–,–,–
CC(C)CN1CC2CCC(C1)N2c1ccc(-c2ccc(Cl)cc2N2CCCC(n3ncc(C(=O)O)c3C(F)F)C2)cc1 (stereo not drawn) [Compound 10],< 20 nM,–,–,–
